Measured values from patent publication US12145927B2 (BRISTOL-MYERS SQUIBB COMPANY, priority 2018, dated 2024).
pIC50: −log10 of the molar value.

Biological target: T1, human IDO1 (Homo sapiens, UniProt P14902)
T1 construct: expressed in transfected cells
Test: IDO inhibition assay in human IDO1/HEK293 cells (IDO1 HEK Human)
Assay type: cell-based
Details: HEK293 cells stably expressing human IDO1; 20 hours incubation; absorbance at 490 nm after Ehrlich reagent
Outline: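 HEK293 clones stably expressing human IDO1 (10,000 cells/well, phenol red-free RPMI, 10% FBS) were treated with compound for 20 hours at 37° C. After 0.2% TCA and 30 min at 50° C., kynurenine was read with Ehrlich reagent at 490 nm. IC50 was normalised to DMSO (0%) and 500 nM reference standard (100%).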

T1 sequence (P14902 whole entry): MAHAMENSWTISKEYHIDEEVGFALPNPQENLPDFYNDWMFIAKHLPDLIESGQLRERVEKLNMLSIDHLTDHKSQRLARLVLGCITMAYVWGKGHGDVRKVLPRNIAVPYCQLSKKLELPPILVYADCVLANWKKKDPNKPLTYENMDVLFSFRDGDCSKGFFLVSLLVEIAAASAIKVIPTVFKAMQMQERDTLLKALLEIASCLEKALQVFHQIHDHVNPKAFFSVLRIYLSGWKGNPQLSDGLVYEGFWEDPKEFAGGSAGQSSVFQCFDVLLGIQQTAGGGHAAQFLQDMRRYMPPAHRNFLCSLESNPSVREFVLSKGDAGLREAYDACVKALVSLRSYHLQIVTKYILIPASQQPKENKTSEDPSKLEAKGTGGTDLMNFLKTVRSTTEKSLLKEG

`Fc1cnc(Nc2cc(-c3ccccc3-c3nnn[nH]3)cc3c2OCCCC3c2ccccc2)nc1` (single isomer, unassigned) [63 (En-2), N-(7-(2-(1H-tetrazol-5-yl)phenyl)-5-phenyl-2,3,4,5-tetrahydrobenzo[b]oxepin-9-yl)-5-fluoropyrimidin-2-amine] was tested. Which pIC50 did it give?
The pIC50 was 7.94.

With `O=C(Nc1ccccc1F)Nc1cc(-c2ccccc2-c2nnn[nH]2)cc2c1OCCCC2C1CC1` (single isomer, unassigned) [38 (En. 1), 1-(7-(2-(1H-tetrazol-5-yl)phenyl)-5-cyclopropyl-2,3,4,5-tetrahydrobenzo[b]oxepin-9-yl)-3-(2-fluorophenyl)urea] as the molecule, how does the pIC50 read?
Its pIC50 is 6.65.

With `c1ccc(C2CCCOc3c(Nc4ccnc5ccnn45)cc(-c4ccccc4-c4nnn[nH]4)cc32)cc1` (single isomer, unassigned) [Example 81, N-(7-(2-(1H-tetrazol-5-yl)phenyl)-5-phenyl-2,3,4,5-tetrahydrobenzo[b]oxepin-9-yl) pyrazolo[1,5-a]pyrimidin-7-amine] as the molecule, how does the pIC50 read?
The pIC50 was 5.60.

With `Cc1ccc(NC(=O)Nc2cc(-c3ccccc3C(=O)O)cc3c2OCCCC3c2ccccc2)cc1` (single isomer, unassigned) [Example 8-2, 2-(5-phenyl-9-(3-(p-tolyl)ureido)-2,3,4,5-tetrahydrobenzo[b]oxepin-7-yl)benzoic acid] as the molecule, how does the pIC50 read?
Its pIC50 is 6.01.

With `Cc1ccc(NC(=O)Nc2cc(-c3ccccc3C(=O)O)cc3c2OCCCC3c2ccccc2)cc1` (racemic) [Example 8-1, 2-(5-phenyl-9-(3-(p-tolyl)ureido)-2,3,4,5-tetrahydrobenzo[b]oxepin-7-yl)benzoic acid] as the molecule, how does the pIC50 read?
The pIC50 was 7.57.

With `Cc1ccc(-c2nnn[nH]2)c(-c2cc(NC(=O)Nc3ccccc3F)c3c(c2)C(C2CC2)CCCO3)c1` (single isomer, unassigned) [Example 34-1] as the molecule, how does the pIC50 read?
Its pIC50 is 7.18.

`Cc1ccc(CC(=O)Nc2cc(-c3ccccc3-c3nnn[nH]3)cc3c2OCCC(C)C3c2ccccc2)cc1` (single isomer, unassigned) [Example 47, N-(7-(2-(1H-tetrazol-5-yl)phenyl)-4-methyl-5-phenyl-2,3,4,5-tetrahydrobenzo[b]oxepin-9-yl)-2-(p-tolyl)acetamide] was tested. Which pIC50 did it give?
Its pIC50 is 6.55.

How did the pIC50 turn out when `CC(=O)NS(=O)(=O)c1ccccc1-c1cc(NC(=O)Nc2ccc(C)cc2)c2c(c1)C(c1ccccc1)CCCO2` (single isomer, unassigned) [Example 58, N-((2-(5-phenyl-9-(3′-(p-tolyl)ureido)-2,3,4,5-tetrahydrobenzo[b]oxepin-7-yl)phenyl)sulfonyl)acetamide] was run?
The pIC50 was 5.87.

How did the pIC50 turn out when `Cc1ccc(-c2nnn[nH]2)c(-c2cc(Nc3ccc(Cl)c(F)c3)c3c(c2)C(c2ccccc2)CCCO3)c1` (single isomer, unassigned) [Example 76, N-(4-chloro-3-fluorophenyl)-7-(5-methyl-2-(1H-tetrazol-5-yl)phenyl)-5-phenyl-2,3,4,5-tetrahydrobenzo[b]oxepin-9-amine] was run?
The pIC50 was 8.08.

With `CCC(C)C1CCCOc2c(NC(=O)Cc3ccc(C)cc3)cc(-c3ccccc3-c3nnn[nH]3)cc21` (single isomer, unassigned) [30 (Dia. mix 1), N-(7-(2-(1H-tetrazol-5-yl)phenyl)-5-(sec-butyl)-2,3,4,5-tetrahydrobenzo[b]oxepin-9-yl)-2-(p-tolyl)acetamide] as the molecule, how does the pIC50 read?
Its pIC50 is 7.11.

`O=C(Nc1ccccc1F)Nc1cc(-c2ccccc2-c2nnn[nH]2)cc2c1OCCCC2C1CC1` (single isomer, unassigned) [38 (En. 2), 1-(7-(2-(1H-tetrazol-5-yl)phenyl)-5-cyclopropyl-2,3,4,5-tetrahydrobenzo[b]oxepin-9-yl)-3-(2-fluorophenyl)urea] was tested. Which pIC50 did it give?
Its pIC50 is 7.71.

`CCC(C)C1CCCOc2c(NC(=O)Cc3ccc(C)cc3)cc(-c3ccccc3-c3nnn[nH]3)cc21` (single isomer, unassigned) [30 (Dia. mix 2), N-(7-(2-(1H-tetrazol-5-yl)phenyl)-5-(sec-butyl)-2,3,4,5-tetrahydrobenzo[b]oxepin-9-yl)-2-(p-tolyl)acetamide] was tested. Which pIC50 did it give?
Its pIC50 is 7.93.

With `CC(=O)NS(=O)(=O)c1ccccc1-c1cc(NC(=O)Nc2ccc(C)cc2)c2c(c1)C(c1ccccc1)CCCO2` (single isomer, unassigned) [59 (En. 2), N-((2-(5-phenyl-9-(3-(p-tolyl)ureido)-2,3,4,5-tetrahydrobenzo[b]oxepin-7-yl)phenyl)sulfonyl)acetamide] as the molecule, how does the pIC50 read?
The pIC50 was 6.55.

`Cc1cnc(Nc2cc(-c3ccccc3-c3nnn[nH]3)cc3c2OCCCC3c2ccccc2)nc1` (single isomer, unassigned) [55 (En. 1), N-(7-(2-(1H-tetrazol-5-yl)phenyl)-5-phenyl-2,3,4,5-tetrahydrobenzo[b]oxepin-9-yl)-5-methylpyrimidin-2-amine] was tested. Which pIC50 did it give?
The pIC50 was 5.85.

`Cc1ccc(NC(=O)Nc2cc(-c3ccccc3-c3nnn[nH]3)cc3c2OCC(O)C(O)C3c2ccccc2)cc1` (single isomer, unassigned) [9 (En. 1), 1-(7-(2-(1H-tetrazol-5-yl)phenyl)-3,4-dihydroxy-5-phenyl-2,3,4,5-tetrahydrobenzo[b]oxepin-9-yl)-3-(p-tolyl)urea] was tested. Which pIC50 did it give?
The pIC50 was less than 5.22.

With `CCC(C)C1CCCOc2c(NC(=O)Nc3ccc(C)cc3)cc(-c3ccccc3-c3nnn[nH]3)cc21` (single isomer, unassigned) [Example 29, 1-(7-(2-(1H-tetrazol-5-yl)phenyl)-5-(sec-butyl)-2,3,4,5-tetrahydrobenzo[b]oxepin-9-yl)-3-(p-tolyl)urea] as the molecule, how does the pIC50 read?
Its pIC50 is 7.74.

With `Cc1nc2ccc(Nc3cc(-c4ccccc4-c4nnn[nH]4)cc4c3OCCCC4c3ccccc3)cc2s1` (single isomer, unassigned) [Example 71, N-(7-(2-(1H-tetrazol-5-yl)phenyl)-5-phenyl-2,3,4,5-tetrahydrobenzo[b]oxepin-9-yl)-2-methylbenzo[d]thiazol-6-amine] as the molecule, how does the pIC50 read?
Its pIC50 is 8.51.

How did the pIC50 turn out when `Cc1ccc(CC(=O)Nc2cc(-c3ccccc3-c3nnn[nH]3)cc3c2OCCCC3C2CC2)cc1` (single isomer, unassigned) [37 (En. 1), N-(7-(2-(1H-tetrazol-5-yl)phenyl)-5-cyclopropyl-2,3,4,5-tetrahydrobenzo[b]oxepin-9-yl)-2-(p-tolyl)acetamide] was run?
Its pIC50 is 6.66.

How did the pIC50 turn out when `C=C(C)[C@H]1Oc2c(NC(=O)Nc3ccc(C)cc3)cc(-c3ccccc3-c3nnn[nH]3)cc2[C@@H]1c1ccccc1` (racemic) [Example 93, (+/−)-1-((trans)-5-(2-(1H-tetrazol-5-yl)phenyl)-3-phenyl-2-(prop-1-en-2-yl)-2,3-dihydrobenzofuran-7-yl)-3-(p-tolyl)urea] was run?
The pIC50 was 8.04.

`O=C(Nc1ccccc1F)Nc1cc(-c2ccccc2-c2noc(=O)[nH]2)cc2c1OCCCC2C1CC1` (stereo not drawn) [Example 35, 1-(5-cyclopropyl-7-(2-(5-oxo-4,5-dihydro-1,2,4-oxadiazol-3-yl)phenyl)-2,3,4,5-tetrahydrobenzo[b]oxepin-9-yl)-3-(2-fluorophenyl)urea] was tested. Which pIC50 did it give?
The pIC50 was 7.71.

With `Cc1ccc(NC(=O)Nc2cc(-c3ccccc3-c3nnn[nH]3)cc3c2OCCC(C)C3c2ccccc2)cc1` (single isomer, unassigned) [Example 44, 1-(7-(2-(1H-tetrazol-5-yl)phenyl)-4-methyl-5-phenyl-2,3,4,5-tetrahydrobenzo[b]oxepin-9-yl)-3-(p-tolyl)urea] as the molecule, how does the pIC50 read?
The pIC50 was 8.77.

`Cc1ccc(CC(=O)Nc2cc(-c3ccccc3-c3nnn[nH]3)cc3c2OCCCC3C(C)C)cc1` (single isomer, unassigned) [25 (En. 1), N-(7-(2-(1H-tetrazol-5-yl)phenyl)-5-isopropyl-2,3,4,5-tetrahydrobenzo[b]oxepin-9-yl)-2-(p-tolyl)acetamide] was tested. Which pIC50 did it give?
The pIC50 was 7.54.

How did the pIC50 turn out when `Cc1ccc(-c2nnn[nH]2)c(-c2cc(Nc3ccc(Cl)cc3F)c3c(c2)C(c2ccccc2)CCCO3)c1` (single isomer, unassigned) [Example 75, N-(4-chloro-2-fluorophenyl)-7-(5-methyl-2-(1H-tetrazol-5-yl)phenyl)-5-phenyl-2,3,4,5-tetrahydrobenzo[b]oxepin-9-amine] was run?
Its pIC50 is 7.73.

`Cc1ccc(NC(=O)Nc2cc(C(C)CC(=O)O)cc3c2O[C@H](C2CC2)[C@H]3c2ccccc2)cc1` (mixture of isomers) [Example 111, rac-3-((2R,3S)-2-cyclopropyl-3-phenyl-7-(3-(p-tolyl)ureido)-2,3-dihydrobenzofuran-5-yl)butanoic acid] was tested. Which pIC50 did it give?
The pIC50 was 5.85.

`Cc1ccc(NC(=O)Nc2cc(-c3ccccc3-c3nnn[nH]3)cc3c2OC(C)(C)C3)cc1` [Example 120, 1-(5-(2-(1H-Tetrazol-5-yl)phenyl)-2,2-dimethyl-2,3-dihydrobenzofuran-7-yl)-3-(p-tolyl)urea] was tested. Which pIC50 did it give?
Its pIC50 is 6.34.

With `C=C[C@H]1Oc2c(NC(=O)Nc3ccc(C)cc3)cc(-c3ccccc3-c3nnn[nH]3)cc2[C@@H]1CCC(F)(F)F` (racemic) [Example 94, (+/−)-1-((trans)-5-(2-(1H-tetrazol-5-yl)phenyl)-3-(3,3,3-trifluoropropyl)-2-vinyl-2,3-dihydrobenzofuran-7-yl)-3-(p-tolyl)urea] as the molecule, how does the pIC50 read?
Its pIC50 is 7.72.

How did the pIC50 turn out when `Cc1ccc(NC(=O)Nc2cc(-c3ccccc3C(N)=O)cc3c2OCCCC3c2ccccc2)cc1` (stereo not drawn) [Example 7, 2-(5-phenyl-9-(3-(p-tolyl)ureido)-2,3,4,5-tetrahydrobenzo[b]oxepin-7-yl)benzamide] was run?
Its pIC50 is 7.39.

With `C=C[C@H]1Oc2c(NC(=O)Nc3ccc(C)cc3)cc(-c3ccccc3-c3nnn[nH]3)cc2[C@@H]1CCC(F)(F)F` (single isomer, unassigned) [Example 100, 1-((trans)-5-(2-(1H-tetrazol-5-yl)phenyl)-3-(3,3,3-trifluoropropyl)-2-vinyl-2,3-dihydrobenzofuran-7-yl)-3-(p-tolyl)urea] as the molecule, how does the pIC50 read?
The pIC50 was 7.68.

With `CC[C@@H]1Oc2c(NC(=O)Nc3ccc(C)cc3)cc(-c3ccccc3-c3nnn[nH]3)cc2[C@H]1c1ccccc1` (racemic) [Example 90, (+/−)-1-((trans)-5-(2-(1H-tetrazol-5-yl)phenyl)-3-phenyl-2-ethyl-2,3-dihydrobenzofuran-7-yl)-3-(p-tolyl)urea] as the molecule, how does the pIC50 read?
The pIC50 was 7.74.

How did the pIC50 turn out when `Cc1ccc(NC(=O)Nc2cc(-c3ccccc3-c3nnn[nH]3)cc3c2OCCCC3C(C)C)cc1` (racemic) [Example 24, 1-(7-(2-(1H-tetrazol-5-yl)phenyl)-5-isopropyl-2,3,4,5-tetrahydrobenzo[b]oxepin-9-yl)-3-(p-tolyl)urea] was run?
Its pIC50 is 8.36.
